Starred links: 1 amine or outer side, 2 acyl side, 3 side chain; linkers in the order of their positions; H or OH if unused. Positions of bridges follow the written chain, without caps; N, C: chain ends. Residues, ends and D or L forms follow the SMILES beside them. *: point of attachment. C20 diacid = O=C(O)CCCCCCCCCCCCCCCCCCC(=O)*; γGlu = O=C(O)[C@H](CCC(=O)[*:2])N[*:1]
Columns and labels:
Assay type in all cases: cell-based
[1] = target: T1, human amylin receptor (amylin 3(a) receptor: human calcitonin receptor + RAMP-3) (Homo sapiens, UniProt O60896+P30988); test: Assay (II)a functional CRE-luciferase assay, human amylin receptor; conditions: Table 6; human amylin receptor
T1 construct: expressed in transfected cells; host or cells: BHK570
T1 sequence (P30988 25-474): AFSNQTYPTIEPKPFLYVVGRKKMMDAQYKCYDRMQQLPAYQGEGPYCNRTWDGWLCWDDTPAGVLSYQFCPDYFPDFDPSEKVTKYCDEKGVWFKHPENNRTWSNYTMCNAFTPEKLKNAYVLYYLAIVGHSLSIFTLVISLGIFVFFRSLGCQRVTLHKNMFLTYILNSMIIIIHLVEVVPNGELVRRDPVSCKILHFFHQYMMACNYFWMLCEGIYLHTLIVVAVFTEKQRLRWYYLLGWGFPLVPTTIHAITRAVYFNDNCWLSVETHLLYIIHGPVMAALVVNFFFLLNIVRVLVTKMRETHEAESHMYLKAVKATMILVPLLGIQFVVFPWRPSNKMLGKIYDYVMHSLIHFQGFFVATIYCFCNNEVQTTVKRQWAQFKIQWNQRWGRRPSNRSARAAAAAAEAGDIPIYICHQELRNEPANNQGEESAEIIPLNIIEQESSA
T1 sequence (O60896 24-148 partner): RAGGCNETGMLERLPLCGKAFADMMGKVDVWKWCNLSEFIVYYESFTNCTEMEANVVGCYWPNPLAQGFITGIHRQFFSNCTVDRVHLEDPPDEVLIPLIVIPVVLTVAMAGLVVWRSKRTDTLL

[2] = target: T2, rat calcitonin (a) receptor (Rattus norvegicus, UniProt P32214); test: Assay (II)b functional cAMP FlashPlate assay, rat calcitonin receptor; conditions: Table 11; read-out: CTa receptor rat EC50
T2 construct: expressed in transfected cells; host or cells: BHK tk'ts 13
T2 sequence (P32214 25-479 isoform P32214-2 limits assumed): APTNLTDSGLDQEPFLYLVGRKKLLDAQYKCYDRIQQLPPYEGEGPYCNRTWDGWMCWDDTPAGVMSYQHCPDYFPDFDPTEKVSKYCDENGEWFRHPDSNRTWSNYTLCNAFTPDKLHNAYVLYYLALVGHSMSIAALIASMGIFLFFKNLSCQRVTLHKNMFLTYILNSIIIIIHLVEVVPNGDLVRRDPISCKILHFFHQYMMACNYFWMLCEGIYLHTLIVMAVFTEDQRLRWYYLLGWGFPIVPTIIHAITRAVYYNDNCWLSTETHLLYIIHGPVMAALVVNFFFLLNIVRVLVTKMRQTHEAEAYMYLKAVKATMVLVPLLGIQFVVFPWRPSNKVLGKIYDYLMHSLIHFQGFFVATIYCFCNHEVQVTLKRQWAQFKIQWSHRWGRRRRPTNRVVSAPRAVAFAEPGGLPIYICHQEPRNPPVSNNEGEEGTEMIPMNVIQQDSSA
Text: (§1) Assay (II)b—Rat Calcitonin and Rat Amylin Receptor Assays
(§2) Activation of calcitonin and amylin (coexpression of calcitonin receptor and receptor activity modifying proteins (RAMP)) receptors lead to increased intracellular concentrations of cAMP. In order to quantify the cAMP levels in transiently transfected cells the Adenylyl Cyclase Activation FlashPlate® Assay from […] was used. The basic principle of the FlashPlate® Assay is a competition between radioactive and non-radioactive cAMP generated by the cells for a fixed number of binding sites.
(§3) Construction of rat calcitonin(a)—and rat amylin 3(a)-receptor cells.
(§4) BHK tk'ts 13 cells were transiently transfected with either rat calcitonin (a) receptor or amylin 3 (a) receptor (rat calcitonin(a) receptor+ rat RAMP3) using FuGENE® 6 (ROCHE), according to the manufacturers recommendations.
(§5) 24 hours after transient transfection the cells (rat calcitonin(a)—or rat amylin 3(a)—receptor cells) were added (100.000 cells/well) to the 96 well FlashPlates® with samples or standard in FlashPlate stimulation buffer with IBMX and incubated for 30 min. Detection mix was created according to manufacturers protocol and scintillation measured after 3 h of incubation on TopCounter™ (Packard).

[3] = target: T3, human calcitonin receptor (Homo sapiens, UniProt P30988); test: Assay (II)a functional CRE-luciferase assay, human calcitonin receptor; conditions: Table 7; human calcitonin (CTa) receptor
T3 construct: expressed in transfected cells; host or cells: BHK570
T3 sequence (P30988 25-474): T1 sequence (P30988 25-474)

[4] = target: T4, rat amylin 3(a) receptor (rat calcitonin(a) receptor + rat RAMP3) (Rattus norvegicus, UniProt P32214+Q9JJ73); test: Assay (II)b functional cAMP FlashPlate assay, rat amylin receptor; conditions: Table 11
T4 construct: expressed in transfected cells; host or cells: BHK tk'ts 13
T4 sequence (P32214 25-479 isoform P32214-2 limits assumed): T2 sequence (P32214 25-479 isoform P32214-2 limits assumed)
T4 sequence (Q9JJ73 23-147 partner): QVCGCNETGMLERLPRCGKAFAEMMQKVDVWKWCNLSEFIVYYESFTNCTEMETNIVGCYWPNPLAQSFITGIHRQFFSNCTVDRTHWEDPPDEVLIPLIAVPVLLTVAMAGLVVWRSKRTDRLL
Text: as §1, §2, §3, §4, §5

EC50 [1]: 1.44 nM | EC50 [2]: 1.75 nM | EC50 [3]: 0.672 nM | EC50 [4]: 4.51 nM
SMILES: CC(C)C[C@H](NC(=O)[C@H](CCCNC(=N)N)NC(=O)[C@H](CCC(N)=O)NC(=O)[C@@H](NC(=O)[C@H](C)NC(=O)[C@@H]1CSSC[C@H](NC(=O)[C@H](CCC(=O)O)NC(=O)CC[C@H](NC(=O)CCCCCCCCCCCCCCCCCCC(=O)O)C(=O)O)C(=O)NCC(=O)N[C@@H]([C@@H](C)O)C(=O)N[C@@H](C)C(=O)N[C@@H]([C@@H](C)O)C(=O)N1)[C@@H](C)O)C(=O)N[C@@H](C)C(=O)N[C@@H](CCC(=O)O)C(=O)N[C@@H](Cc1ccccc1)C(=O)N[C@@H](CC(C)C)C(=O)N[C@H](C(=O)N[C@@H](CCCNC(=N)N)C(=O)N[C@@H](CO)C(=O)N[C@@H](CO)C(=O)N[C@@H](CO)C(=O)N[C@@H](CO)C(=O)N[C@@H](Cc1ccccc1)C(=O)NCC(=O)N[C@@H](C)C(=O)N1CCC[C@H]1C(=O)N[C@@H](CC(C)C)C(=O)N[C@@H](CO)C(=O)N[C@@H](CO)C(=O)N[C@H](C(=O)N[C@@H](CCC(=O)O)C(=O)N[C@H](C(=O)NCC(=O)N[C@@H](CO)C(=O)N[C@@H](CCCNC(=N)N)C(=O)N[C@H](C(=O)N[C@@H](Cc1ccc(O)cc1)C(N)=O)[C@@H](C)O)C(C)C)[C@@H](C)O)C(C)C [Example 24, N-alpha-[(S)-4-Carboxy-4-(19-carboxynonadecanoylamino)butyryl]-[Glu1,Gly3,Glu14,Arg18,Ser21,Ser22,Ala25,Pro26,Ser28,Ser29,Glu31,Arg35]-pramlintide] ({C20 diacid-γGlu}-ECGTATCATQRLAEFLVRSSSSFGAPLSSTEVGSRTY-NH2; disulfide 2-7 (inferred); C-terminus assumed)

From patent publication US8722849B2, “Polypeptides” (Novo Nordisk A/S, priority 2011, dated 2014)
